The values below come from patent US20250271426A1, “REDUCTION OF BITTER TASTE OF ACTIVE PHARMACEUTICAL INGREDIENTS AND RELATED ASSAYS AND SCREENING METHODS” (Firmenich Incorporated, priority 2022, published 2025).

The structures appear in SMILES notation.

Common to all, as to test: FLIPR calcium assay, cells with promiscuous G protein transfected with bitter receptor cDNA
Holding throughout (type): cell-based
Details in all cases: responsive if cellular response of >10% over baseline, Fluo4-AM

Assay [1] concerns the target T1, T2R receptor SEQ ID NO: 2 (S2) (Homo sapiens, UniProt Q9NYW2).
T1 construct: expressed in transfected cells; host or cells: cells expressing a promiscuous G protein (e.g., G16g44)
T1 sequence (Q9NYW2 1-309): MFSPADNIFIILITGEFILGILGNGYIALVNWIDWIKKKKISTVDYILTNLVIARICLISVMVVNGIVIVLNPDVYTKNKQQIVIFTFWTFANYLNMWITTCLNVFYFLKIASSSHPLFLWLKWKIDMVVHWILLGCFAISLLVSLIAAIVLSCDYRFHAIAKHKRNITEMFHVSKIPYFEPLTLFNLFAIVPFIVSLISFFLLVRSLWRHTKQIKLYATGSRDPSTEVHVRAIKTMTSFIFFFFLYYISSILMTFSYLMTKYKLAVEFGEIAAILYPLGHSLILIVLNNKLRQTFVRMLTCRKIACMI
In outline:
(§1)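 Promiscuous G protein (e.g., G16g44)-expressing cells transfected with one bitter receptor cDNA each, 28 h incubation, then Fluo4-AM loading for 60 min and wash. Agonist-evoked intracellular calcium fluorescence recorded on FLIPR; receptor deemed responsive when response exceeded 10% over baseline.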

Assay [2] deals with T2, T2R receptor SEQ ID NO: 6 (S6) (Homo sapiens, UniProt P59540).
T2 construct: expressed in transfected cells; host or cells: cells expressing a promiscuous G protein (e.g., G16g44)
T2 sequence (P59540 1-309): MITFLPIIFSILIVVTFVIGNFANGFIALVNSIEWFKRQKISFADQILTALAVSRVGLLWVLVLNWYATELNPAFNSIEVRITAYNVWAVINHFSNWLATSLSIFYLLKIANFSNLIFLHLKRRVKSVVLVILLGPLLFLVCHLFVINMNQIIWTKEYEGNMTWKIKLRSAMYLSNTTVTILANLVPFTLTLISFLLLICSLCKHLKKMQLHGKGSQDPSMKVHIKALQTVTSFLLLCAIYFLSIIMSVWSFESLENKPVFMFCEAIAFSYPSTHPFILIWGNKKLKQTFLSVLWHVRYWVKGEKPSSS
The essentials:
as §1

Assay [3] concerns the target T3, T2R receptor SEQ ID NO: 5 (S5) (Homo sapiens, UniProt P59534).
T3 construct: expressed in transfected cells; host or cells: cells expressing a promiscuous G protein (e.g., G16g44)
T3 sequence (P59534 18-338): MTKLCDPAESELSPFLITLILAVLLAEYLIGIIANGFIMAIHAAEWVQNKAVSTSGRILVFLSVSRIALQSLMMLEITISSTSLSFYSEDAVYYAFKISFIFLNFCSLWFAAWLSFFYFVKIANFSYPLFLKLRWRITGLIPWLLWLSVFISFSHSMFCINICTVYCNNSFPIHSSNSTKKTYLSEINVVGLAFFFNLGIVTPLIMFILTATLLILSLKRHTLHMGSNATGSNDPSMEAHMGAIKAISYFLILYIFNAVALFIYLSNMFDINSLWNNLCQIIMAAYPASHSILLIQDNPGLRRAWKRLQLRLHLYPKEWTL
In outline:
as §1

In assay [4] the target is T4, T2R receptor SEQ ID NO: 3 (S3) (Homo sapiens, UniProt Q9NYW0, T156M).
T4 construct: expressed in transfected cells; host or cells: cells expressing a promiscuous G protein (e.g., G16g44)
T4 sequence (Q9NYW0 1-307 T156M): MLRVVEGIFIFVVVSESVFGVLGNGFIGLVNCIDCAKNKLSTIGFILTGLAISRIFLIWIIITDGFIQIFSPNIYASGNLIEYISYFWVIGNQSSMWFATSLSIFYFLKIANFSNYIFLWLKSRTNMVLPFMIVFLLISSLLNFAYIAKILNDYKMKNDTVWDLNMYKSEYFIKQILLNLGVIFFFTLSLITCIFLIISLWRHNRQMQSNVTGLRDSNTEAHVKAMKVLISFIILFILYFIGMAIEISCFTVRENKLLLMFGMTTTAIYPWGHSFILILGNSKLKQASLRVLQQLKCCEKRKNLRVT
The essentials:
as §1

Assay [5] deals with T5, T2R receptor SEQ ID NO: 4 (S4) (Homo sapiens, UniProt Q9NYV8).
T5 construct: expressed in transfected cells; host or cells: cells expressing a promiscuous G protein (e.g., G16g44)
T5 sequence (Q9NYV8 1-317): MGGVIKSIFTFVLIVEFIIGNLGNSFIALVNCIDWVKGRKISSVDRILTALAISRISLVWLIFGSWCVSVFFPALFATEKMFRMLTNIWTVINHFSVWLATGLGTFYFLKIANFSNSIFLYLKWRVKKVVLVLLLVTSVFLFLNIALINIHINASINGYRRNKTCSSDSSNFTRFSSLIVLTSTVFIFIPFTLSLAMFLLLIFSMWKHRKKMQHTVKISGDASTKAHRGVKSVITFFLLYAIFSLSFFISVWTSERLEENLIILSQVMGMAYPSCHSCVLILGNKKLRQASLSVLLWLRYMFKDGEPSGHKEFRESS
The essentials:
as §1

Assay [6] has as its target T6, T2R receptor SEQ ID NO: 1 (S1) (Homo sapiens, UniProt Q9NYW7).
T6 construct: expressed in transfected cells; host or cells: cells expressing a promiscuous G protein (e.g., G16g44)
T6 sequence (Q9NYW7 1-299): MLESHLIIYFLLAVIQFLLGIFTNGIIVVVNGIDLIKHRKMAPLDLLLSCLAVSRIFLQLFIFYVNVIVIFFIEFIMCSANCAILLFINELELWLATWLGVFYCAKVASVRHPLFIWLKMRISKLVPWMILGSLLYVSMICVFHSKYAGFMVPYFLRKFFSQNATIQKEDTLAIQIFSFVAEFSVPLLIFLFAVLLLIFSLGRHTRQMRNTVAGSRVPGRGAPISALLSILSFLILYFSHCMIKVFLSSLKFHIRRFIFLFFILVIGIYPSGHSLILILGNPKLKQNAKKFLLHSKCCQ
In outline: as §1

Turning to `CN1[C@@H]2CC[C@H]1C[C@@H](OC(=O)C(CO)c1ccccc1)C2` (some centres unmarked) [Atropine], the “S2 positive response of T2R receptor to API” value (shortened to “S2 positive response”) in assay [1] is “+ (a “+” to indicate whether a particular T2R receptor showed a positive response to a particular API)”. Moreover, in assay [2], the “S6 positive response of T2R receptor to API” value (“S6 positive response” below) is on record as “+ (a “+” to indicate whether a particular T2R receptor showed a positive response to a particular API)”. Also, in assay [3], the “S5 positive response of T2R receptor to API” value (from here on “S5 positive response”) is given as “+ (a “+” to indicate whether a particular T2R receptor showed a positive response to a particular API)”. Moreover, the “S3 positive response of T2R receptor to API” value (shortened to “S3 positive response”) in assay [4] is listed as “+ (a “+” to indicate whether a particular T2R receptor showed a positive response to a particular API)”.
In the case of `C[C@]12C=CC(=O)C=C1CC[C@@H]1[C@@H]2C(=O)C[C@@]2(C)[C@H]1CC[C@]2(O)C(=O)CO` [Prednisone], the “S2 positive response” value in assay [1] was “+ (a “+” to indicate whether a particular T2R receptor showed a positive response to a particular API)”. Further, the “S6 positive response” value in assay [2] is listed as “+ (a “+” to indicate whether a particular T2R receptor showed a positive response to a particular API)”. Further, the “S4 positive response of T2R receptor to API” value (“S4 positive response” below) in assay [5] is “+ (a “+” to indicate whether a particular T2R receptor showed a positive response to a particular API)”. Moreover, the “S3 positive response” value in assay [4] is given as “+ (a “+” to indicate whether a particular T2R receptor showed a positive response to a particular API)”. Further, in assay [6], the “S1 positive response of T2R receptor to API” value (from here on “S1 positive response”) is listed as “+ (a “+” to indicate whether a particular T2R receptor showed a positive response to a particular API)”.
As for `COc1ccc([C@@H]2Sc3ccccc3N(CCN(C)C)C(=O)[C@@H]2OC(C)=O)cc1` [Diltiazem], the “S2 positive response” value in assay [1] is “+ (a “+” to indicate whether a particular T2R receptor showed a positive response to a particular API)”. Also, in assay [2], the “S6 positive response” value is “+ (a “+” to indicate whether a particular T2R receptor showed a positive response to a particular API)”. The “S4 positive response” value in assay [5] is recorded as “+ (a “+” to indicate whether a particular T2R receptor showed a positive response to a particular API)”. Moreover, the “S3 positive response” value in assay [4] was “+ (a “+” to indicate whether a particular T2R receptor showed a positive response to a particular API)”. For the same molecule, in assay [6], the “S1 positive response” value is “+ (a “+” to indicate whether a particular T2R receptor showed a positive response to a particular API)”.
For `CCC[C@@H]1C[C@@H](C(=O)N[C@@H]([C@H]2O[C@H](SC)[C@H](O)[C@@H](O)[C@H]2O)[C@H](C)Cl)N(C)C1` [Clinamycin], the “S2 positive response” value in assay [1] is “+ (a “+” to indicate whether a particular T2R receptor showed a positive response to a particular API)”. Further, in assay [3], the “S5 positive response” value is on record as “+ (a “+” to indicate whether a particular T2R receptor showed a positive response to a particular API)”. Besides, the “S4 positive response” value in assay [5] is “+ (a “+” to indicate whether a particular T2R receptor showed a positive response to a particular API)”. The “S3 positive response” value in assay [4] is “+ (a “+” to indicate whether a particular T2R receptor showed a positive response to a particular API)”.
Take `COc1cc(Cc2cnc(N)nc2N)cc(OC)c1OC` [Trimethoprim]: in assay [1], the “S2 positive response” value was “+ (a “+” to indicate whether a particular T2R receptor showed a positive response to a particular API)”. Also, the “S6 positive response” value in assay [2] is on record as “+ (a “+” to indicate whether a particular T2R receptor showed a positive response to a particular API)”. Moreover, the “S5 positive response” value in assay [3] is given as “+ (a “+” to indicate whether a particular T2R receptor showed a positive response to a particular API)”. Also, in assay [4], the “S3 positive response” value is “+ (a “+” to indicate whether a particular T2R receptor showed a positive response to a particular API)”.
Turning to `NC(N)=Nc1nc(CSCCC(N)=NS(N)(=O)=O)cs1` [Famotidine], the “S2 positive response” value in assay [1] was “+ (a “+” to indicate whether a particular T2R receptor showed a positive response to a particular API)”. The “S6 positive response” value in assay [2] is given as “+ (a “+” to indicate whether a particular T2R receptor showed a positive response to a particular API)”. In assay [3], the “S5 positive response” value is given as “+ (a “+” to indicate whether a particular T2R receptor showed a positive response to a particular API)”. The “S3 positive response” value in assay [4] is “+ (a “+” to indicate whether a particular T2R receptor showed a positive response to a particular API)”. In assay [6], the “S1 positive response” value was “+ (a “+” to indicate whether a particular T2R receptor showed a positive response to a particular API)”.
With `CC[C@H]1OC(=O)[C@H](C)[C@@H](O[C@H]2C[C@@](C)(OC)[C@@H](O)[C@H](C)O2)[C@H](C)[C@@H](O[C@@H]2O[C@H](C)C[C@H](N(C)C)[C@H]2O)[C@](C)(O)C[C@@H](C)C(=O)[C@H](C)[C@@H](O)[C@]1(C)O` [Erythromycin], the “S2 positive response” value in assay [1] is “+ (a “+” to indicate whether a particular T2R receptor showed a positive response to a particular API)”. The “S6 positive response” value in assay [2] is reported as “+ (a “+” to indicate whether a particular T2R receptor showed a positive response to a particular API)”. Besides, the “S5 positive response” value in assay [3] is given as “+ (a “+” to indicate whether a particular T2R receptor showed a positive response to a particular API)”. The “S3 positive response” value in assay [4] was “+ (a “+” to indicate whether a particular T2R receptor showed a positive response to a particular API)”.
For the molecule `CN1CCN(CC(=O)N2c3ccccc3C(=O)Nc3cccnc32)CC1` [Pirenzepine], in assay [1], the “S2 positive response” value is “+ (a “+” to indicate whether a particular T2R receptor showed a positive response to a particular API)”. Further, in assay [2], the “S6 positive response” value was “+ (a “+” to indicate whether a particular T2R receptor showed a positive response to a particular API)”. In addition, in assay [3], the “S5 positive response” value was “+ (a “+” to indicate whether a particular T2R receptor showed a positive response to a particular API)”. Moreover, the “S3 positive response” value in assay [4] is listed as “+ (a “+” to indicate whether a particular T2R receptor showed a positive response to a particular API)”.
